The record followed here is PMC3693772, “Protein expression, biochemical pharmacology of signal transduction, and relation to intraocular pressure modulation by bradykinin B2 receptors in ciliary muscle” (Molecular Vision, 2013).

The subject of test [1] is ERK1/2 phosphorylation, h-CM cells. The test can be described thus: ERK1/2 phosphorylation in h-CM cells (HTRF). Conditions: 100 nM. Type of test: cell-based, human. As for the experimental part:
Measurement of extracellular signal-regulated kinase-1/2 phosphorylation and pro-matrix metalloproteinase production
In the current assay, an homogeneous-time-resolved fluorescence (HTRF) assay (CisBio; Bedford, MA) was used. The HTRF assay is based on a sandwich immunoassay using an antiphospho-ERK1/2 antibody labeled with D2 and an anti-ERK1/2 antibody labeled with Eu^3+-Cryptate. In brief, h-CM cells (passage 7) were cultured in 96-well half-area white plates and incubated overnight, at 37 °C in CO2 atmosphere. […] Lysis buffer provided in the HTRF kit was used to lyse the cells at 23 °C with shaking for 30 min after the agonist treatment. HTRF conjugates containing phospho-ERK1/2 antibodies were then added to the lysates and incubated for an additional 2 h at 23 °C. The fluorescence signal was recorded using a Tecan M1000 fluorescence plate reader ([…]) at 620 nm for the donor and 665 nm for the acceptor.

Another test has as its system primary h-TM cells. Type of test: cell-based, human. Conditions: preliminary data, values rounded-off, read-out: Agonist potency at stimulating [Ca^2+]i mobilization in primary h-TM cells (EC50).

Turning to H-RPPGFSPFR-OH [BK], the “Increase in ERK1/2 phosphorylation (abstract)” value in test [1] is reported as “twofold”. The EC50 in the test with primary h-TM cells is 1 nM.

One may read the EC50 as the midpoint of the concentration-response curve.
